Values quoted from earlier work as cited in publication PMC3499999, “Advances in the Treatment of Malaria” (Mediterranean Journal of Hematology and Infectious Diseases, 2012).

Legend:
[1] = design: method as in PMID 10661809; details: high intramuscular doses, oil-based, beagle dogs
[2] = design: method as in PMID 20863871; details: animals, only for long drug exposure; artemether and arteether intramuscularly, artelinic acid orally
P. falciparum = test system: P. falciparum; design: method as in earlier work; details: 3-days course
[3] = in vivo
[4] = not given; remark: listed apart in the source
[5] = design: method as in PMID 17461742
severe malaria [6] = details: artesunate versus quinine, systematic reviews, regardless of age and geographic differences
[7] = design: method as in PMID 22540954
severe malaria [8] = test system: severe malaria; design: method as in PMID 19059639; details: rectal, over placebo, p=0.0013

CO[C@H]1O[C@@H]2O[C@@]3(C)CC[C@H]4[C@H](C)CC[C@@H]([C@H]1C)[C@@]24OO3 [artemether]
half-life: 2 to 4 h
QTc prolongation [1]: reported at significant level
neurotoxicity [2]: Fatal neurotoxicity

C[C@@H]1CC[C@H]2[C@@H](C)C(=O)O[C@@H]3O[C@@]4(C)CC[C@@H]1[C@]32OO4 [artemisinin]
reduction of parasite burden (P. falciparum): 90%

CCO[C@H]1O[C@@H]2O[C@@]3(C)CC[C@H]4[C@H](C)CC[C@@H]([C@H]1C)[C@@]24OO3 [arteether]
QTc prolongation [1]: reported at significant level
neurotoxicity [2]: Fatal neurotoxicity

Atovaquone-proguanil
risk of birth defects relative to the general population [3]: ≤ 3 times

COc1cc(NC(C)CCCN/C(C)=C2\CCOC2=O)c2ncccc2c1 (stereo not drawn) [buloquine]
oxidative toxicity compared with primaquine [4]: less oxidative toxicity

COc1cc(C)c2c(Oc3cccc(C(F)(F)F)c3)c(OC)cc(NC(C)CCCN)c2n1 (stereo not drawn) [tefenoquine, tafenoquine]
half-life compared with primaquine [5]: longer half-life

C[C@H]1[C@H](OC(=O)CCC(=O)O)O[C@@H]2O[C@@]3(C)CC[C@H]4[C@H](C)CC[C@@H]1[C@@]24OO3 [artesunate]
half-life: < 1 h
case fatality rate, RR (severe malaria [6]): 0.71
median elimination T ½ [7]: 0.25 [0.11 – 1.82] hours
death or permanent disability, RR (severe malaria [8]): 0.49

COc1cc(NC(C)CCCN)c2ncccc2c1 (stereo not drawn) [primaquine]
main safety concern ([4]; patients with glucose-6-phosphate dehydrogenase deficiency): risk of severe intravascular haemolysis

C[C@H]1[C@@H](OCc2ccc(C(=O)O)cc2)O[C@@H]2O[C@@]3(C)CC[C@H]4[C@H](C)CC[C@@H]1[C@@]24OO3 [artelinic acid]
neurotoxicity [2]: Fatal neurotoxicity
